Values quoted from earlier work, collected in USRE41148E1, “Oral pulsed dose drug delivery system” (Shire Laboratories, Inc., priority 1998, dated 2010).

What was measured:
[1] = wax-surfactant coating level 60%
[2] = pulsatile capsule, release after nominal 5-hr period, majority of subjects

| Compound | lag time of drug release [1] | time required for complete release after the lag time [1] | drug observed in the blood [2] |
| --- | --- | --- | --- |
| Cn1c(=O)c2[nH]cnc2n(C)c1=O [theophylline] | two-hour | three hours |  |
| C[C@H](CS)C(=O)N1CCC[C@H]1C(=O)O [captopril] |  |  | no measurable amounts |
